Earlier results in patent US11389512B2, “Use of low molecular weight fractions of human serum albumin in treating diseases” (Ampio Pharmaceuticals, Inc., priority 2015, dated 2022).

Tests used:
[1] = tested on: platelet activating factor
[2] = in vivo

| Structure (SMILES) | inhibition of platelet activating factor [1] | time to be cleared from the body [2] [days] |
| --- | --- | --- |
| CC1NC(=O)C(CC(=O)O)NC1=O (centres unmarked) [DA-DKP, 3-methyl-2,5-diketopiperazine-6-acetic acid] | inhibit | – |
| CC(=O)Oc1ccccc1C(=O)O [aspirin, acetylsalicylic acid] | – | 5 |
